Data published in PubChem BioAssay (NCI).
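Five concentrations, 48 hours, 96-well plates. At the GI50, growth is halved. TGI: concentration producing complete growth inhibition.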

What was measured:
Test in all cases: NCI-60 cell line screen, 48 h
K-562 leukemia = tested on: K-562 leukemia
SK-MEL-28 melanoma = tested on: SK-MEL-28 melanoma
TK-10 renal = tested on: TK-10 renal
NCI/ADR-RES ovarian = tested on: NCI/ADR-RES ovarian
SR leukemia = tested on: SR leukemia
MALME-3M melanoma = tested on: MALME-3M melanoma
EKVX NSCLC = tested on: EKVX NSCLC
786-0 renal = tested on: 786-0 renal
UO-31 renal = tested on: UO-31 renal
CCRF-CEM leukemia = tested on: CCRF-CEM leukemia

SMILES	TGI (K-562 leukemia)	TGI (SK-MEL-28 melanoma)	TGI (TK-10 renal)	TGI (NCI/ADR-RES ovarian)	TGI (SR leukemia)	TGI (MALME-3M melanoma)	TGI (EKVX NSCLC)	TGI (786-0 renal)	TGI (UO-31 renal)	TGI (CCRF-CEM leukemia)	GI50 (K-562 leukemia)	GI50 (SK-MEL-28 melanoma)	GI50 (TK-10 renal)	GI50 (NCI/ADR-RES ovarian)	GI50 (SR leukemia)	GI50 (MALME-3M melanoma)	GI50 (EKVX NSCLC)	GI50 (786-0 renal)	GI50 (UO-31 renal)	GI50 (CCRF-CEM leukemia)
Cc1[nH]c2ccccc2c1-c1cc(-c2cc(-c3c(C)[nH]c4ccccc34)nc(N)n2)nc(N)n1	> 100 µM	> 100 µM	> 100 µM	> 100 µM	> 100 µM	> 100 µM	> 100 µM	> 100 µM	> 100 µM											
C=C1c2[nH]c3ccccc3c2C2C(CC)C1CCN2C (configuration not stated)		77.2 µM	> 100 µM	> 100 µM	74.8 µM	56.5 µM	> 100 µM	> 100 µM	> 100 µM	> 100 µM										
N#CC(C#N)N=Nc1ccc(Br)cc1	> 100 µM	26.5 µM	43.2 µM	> 100 µM	> 49.8 µM	10.4 µM	> 83 µM	14.1 µM	7.05 µM	10.7 µM	3.02 µM	3.41 µM	4.04 µM	4.73 µM	3.22 µM	1.35 µM	6 µM	3.79 µM	1.26 µM	1.53 µM
C[C@@H]1Cc2c([nH]c3ccccc23)[C@@H](c2c(F)cc(NC3CN(CCCF)C3)cc2F)N1CC(F)(F)CO	11.8 µM	6.49 µM	29.3 µM	16.6 µM	> 100 µM	3.72 µM	19.3 µM	24.7 µM	16.5 µM	15.3 µM	3.24 µM	2.45 µM	14.4 µM	4.1 µM	3.83 µM	1.77 µM	5.41 µM	8.68 µM	3.7 µM	3.44 µM
O=Cc1ccc(-c2ccc(-c3nc4ccccc4o3)cc2)s1	> 100 µM	> 100 µM	81.3 µM	79.4 µM	47.7 µM		77 µM	> 100 µM	> 100 µM	> 100 µM	37 µM	24.1 µM	33.6 µM	27.2 µM	15.3 µM		20.3 µM	31.9 µM	38.5 µM	5.68 µM
CC(=O)[O-].[Mn+3].[O-]c1ccccc1C=NCCN=Cc1ccccc1[O-]	> 100 µM	> 100 µM	> 100 µM		> 100 µM	> 100 µM	> 100 µM	> 100 µM	> 100 µM	> 100 µM	30.3 µM	> 100 µM	> 100 µM		70.9 µM	> 100 µM	> 100 µM	> 100 µM	> 100 µM	25.1 µM
Cc1nc([C@H]2CC[C@H]3[C@@H]4CCC5=CC(=O)CC[C@]5(C)[C@H]4CC[C@]23C)cs1	> 100 µM	> 100 µM	> 100 µM	> 100 µM		> 100 µM	> 100 µM	> 100 µM		> 100 µM	4.7 µM	> 100 µM	3.33 µM	3.63 µM	0.584 µM	15.2 µM	1.65 µM	> 100 µM		7.26 µM
COc1ccc(/C=C2\CC(C)CC3C2=NN(C(C)=O)C3c2ccc(OC)cc2)cc1 (configuration not stated)	96.3 µM		> 100 µM	73.2 µM	50.5 µM	37.9 µM	> 100 µM	37.7 µM	64.8 µM	> 100 µM	10.1 µM		30.3 µM	21.3 µM	20.4 µM	17.8 µM	27.3 µM	18.8 µM	19 µM	22 µM
Cc1nccc2c3ccc(OCc4cn(-c5ccc(Cl)cc5)nn4)cc3n(CCCc3ccccc3)c12	> 33.3 µM	5.71 µM	> 33.3 µM	1.72 µM	2.25 µM	2.79 µM	> 33.3 µM	1.39 µM	1.37 µM	> 33.3 µM	2.96 µM	1.3 µM	2 µM	0.644 µM	0.789 µM	0.745 µM	12.3 µM	0.649 µM	0.545 µM	1.75 µM
COc1ccc(Cc2cc3c(cc2OCC(=O)O)OCO3)cc1	> 100 µM	> 100 µM	> 100 µM		> 100 µM	> 100 µM	> 100 µM	> 100 µM	> 100 µM	> 100 µM										
CCOC(=O)C(=O)Nc1ccc(Cl)cc1C	> 100 µM	> 100 µM	> 100 µM		> 100 µM	> 100 µM	> 100 µM	> 100 µM	> 100 µM	> 100 µM										
